Data on 1 compound can be found in patent US12419890B2, “Administration of sumo-activating enzyme inhibitor and checkpoint inhibitors” (Takeda Pharmaceutical Company Limited, priority 2019, dated 2025).

In experiment [1] the test system is WEHI-3 syngeneic mouse myelomonocytic leukemia-derived subcutaneous tumor. In words: WEHI-3 Study 5: mouse WEHI-3 syngeneic tumor model, individual tumor volume. Format: in vivo. The following applies: Compound I-263a 7.5 mg/kg IV BIW till Day 14. The method, then:
WEHI-3 Study 5: WEHI-3 is a mouse myelomonocytic leukemia cell line. WEHI-3 mouse syngeneic tumor model was generated by subcutaneous inoculation with 0.1×10^6 WEHI-3 cells (cell suspension) in 9 weeks old female BALB/c mice (SINO-British SIPPR/BK Lab Animal Ltd. Shanghai, China) in the flank. When the mean tumor volume reached approximately 30 mm^3, the animals were randomized into one vehicle control and five treatment groups (n=8/group). Mice were then dosed with 20% HPbCD or Compound I-263a or anti-mouse PD-1 antibody or anti-mouse CTLA-4 antibody over a 21-day period. Tumor growth and body weight were measured twice per week during the treatment and post-treatment periods, and mice were humanely euthanized once they had reached their humane endpoint.
Study 5: A 0.75 mg/mL stock solution of Compound I-263a was formulated weekly in 20% HPβCD and administered intravenously (IV) based on exact animal body weight on each day of treatment, using a dosing volume of 10 mL/kg body weight. Final doses received were 7.5 mg/kg. Dosing volume for Compound I-263a was 0.2 mL. Anti-mouse PD1 antibody (anti-mPD-1) (Bio X Cell, 10 Technology Drive, Suite 2B, West Lebanon, NH 03784) was formulated prior to each injection at 2.0 mg/mL in Phosphate-buffered saline (PBS) and administered intraperitoneally (IP) based on exact body weight on each day of treatment, using a dosing volume of 5 mL/kg resulting in a 10 mg/kg dose. Dosing volume for anti-mPD-1 was 0.1 mL. Anti-mouse CTLA-4 antibody (anti-mCTLA-4) (Bio X Cell, 10 Technology Drive, Suite 2B, West Lebanon, NH 03784) was formulated prior to each injection at 2.0 mg/mL in Phosphate-buffered saline (PBS) and administered intraperitoneally (IP) based on exact body weight on each day of treatment, using a dosing volume of 5 mL/kg resulting in a 10 mg/kg dose. […]
Tumors were measured twice weekly using vernier calipers. Tumor volumes were calculated using standard equation: V=W^2×L/2, where V=volume, W=width, and L=length for the tumor. […] Tumor size and body weight were measured twice a week for the duration of the study. […]

The test system of experiment [2] is SUMO-activating enzyme and SUMOylation. In words: inhibition of SUMO-activating enzyme and SUMOylation in cultured tumor cell lines. It counts as cell-based. The following applies: cultured mouse and human tumor cell lines. The text has this: SAE inhibitors, as disclosed herein, are described, for example, in US 2016/0009744 and U.S. Pat. No. 9,695,154. They may be prepared by methods known to one skilled in the art and/or according to the methods described in US 2016/0009744 and U.S. Pat. No. 9,695,154, which is hereby incorporated by reference in its entirety. Central to the mechanism of action of useful SAE inhibitors, such as Compound I-263a, in combinations and methods of the present disclosure is production of type 1 IFNs and induction of an innate immune response with activation of dendritic cells, natural killer (NK) cells and macrophages.

`Cc1sc(C(=O)c2cncnc2N[C@@H]2C[C@H](COS(N)(=O)=O)[C@@H](O)C2)cc1[C@@H]1NCCc2ccc(Cl)cc21` [Compound I-263a, [(1R,2S,4R)-4-{[5-({4-[(1R)-7-chloro-1,2,3,4-tetrahydroisoquinolin-1-yl]-5-methyl-2-thienyl}carbonyl)pyrimidin-4-yl]amino}-2-hydroxycyclopentyl]methyl sulfamate]: the “tumor growth inhibition / antitumor activity relative to vehicle” value in experiment [1] (anti-mPD-1 10 mg/kg IP BIW till Day 10, anti-mCTLA-4 10 mg/kg IP Q4D till Day 8, 8 tumors/group) is “modest inhibition”. Further, the tumor growth delays result in experiment [1] (delay to 11-14 days) is given as “one”. The “tumors with slight tumor growth delay” value in experiment [1] (delays to 7-11 days, of the 8 implanted tumors) is on record as 6. The “inhibition of SUMO-activating enzyme and SUMOylation” value in experiment [2] is “Selective and potent inhibition”.
